Source: patent US8410097B2 (priority 2005, dated 2013)
Where two headings read alike, the source gives them in different places.

What was measured:
CB1 cannabinoid receptor = biological target: T1, CB1 cannabinoid receptor (Rattus norvegicus, UniProt P20272); experiment: biochemical; assay type: binding; settings: for Ki: rat forebrain membranes; for Selectivity CB1: CB1 over CB2 binding selectivity (ratio of Ki)
T1 construct: membranes were prepared from rat forebrain membranes; from tissue; host or cells: rat forebrain membranes
Description: Some of the inventive analogs were tested for CB2 receptor binding affinity and for CB1 receptor affinity (to determine selectivity). […] The lower the Ki value the higher the binding affinity. […]
Membranes, previously frozen at −80° C., were thawed on ice. To the stirred suspension was added three volumes of TME (25 mM Tris-HCl buffer, 5 mM MgCl2 and 1 mM EDTA) at a pH 7.4. The suspension was incubated at 4° C. for 30 min. At the end of the incubation, the membranes were pelleted and washed three times with TME.
(§1) The treated membranes were subsequently used in the binding assay described below. Approximately 30 μg of membranes were incubated in silanized 96-well microtiter plate with TME containing 0.1% essentially fatty acid-free bovine serum albumin (BSA), 0.8 nM [^3H] […] Radioactivity was detected using MicroScint 20 scintillation cocktail added directly to the dried filterplates, and the filterplates were counted using a Packard Instruments Top-Count. […] Data collected from three independent experiments performed with duplicate determinations was normalized between 100% and 0% specific binding for [^3H] […] The normalized data was analyzed using a 4-parameter nonlinear logistic equation to yield IC50 values.

CB2 cannabinoid receptor = CB2 cannabinoid receptor (Mus musculus, UniProt P47936); experiment: biochemical; assay type: binding; settings: mouse spleen membranes
Description: Some of the inventive analogs were tested for CB2 receptor binding affinity and for CB1 receptor affinity (to determine selectivity). […] The lower the Ki value the higher the binding affinity.
as §1
Silanized centrifuge tubes were used throughout to minimize receptor loss due to adsorption. The CB2 binding assay was conducted in the same manner as for the CB1 binding assay. The binding affinities (Ki) were also expressed in nanomoles (nM).

[1] = Receptor Affinities Ki (nM) CB1, Table 8
[2] = Table 8, read-out: Receptor Affinities Ki (nM) CB2
[3] = Receptor Affinities Ki (nM) CB1, Table 9
[4] = Table 9, read-out: Receptor Affinities Ki (nM) CB2
[5] = Receptor Affinities Ki (nM) CB1, Table 10
[6] = Table 10, read-out: Receptor Affinities Ki (nM) CB2

T1 sequence (P20272 whole entry): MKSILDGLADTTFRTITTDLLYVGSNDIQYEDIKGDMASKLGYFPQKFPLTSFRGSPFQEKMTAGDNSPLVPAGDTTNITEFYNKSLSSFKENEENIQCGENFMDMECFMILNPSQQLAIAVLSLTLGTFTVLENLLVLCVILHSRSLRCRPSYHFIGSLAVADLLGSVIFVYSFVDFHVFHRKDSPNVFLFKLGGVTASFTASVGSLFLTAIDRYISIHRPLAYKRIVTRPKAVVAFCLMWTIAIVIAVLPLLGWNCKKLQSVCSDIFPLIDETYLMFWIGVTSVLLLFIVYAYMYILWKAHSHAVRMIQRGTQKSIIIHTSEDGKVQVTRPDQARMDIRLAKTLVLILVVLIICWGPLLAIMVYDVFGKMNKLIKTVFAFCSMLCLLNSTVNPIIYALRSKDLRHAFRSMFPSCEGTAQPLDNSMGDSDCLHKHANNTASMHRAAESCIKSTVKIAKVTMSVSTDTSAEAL
CB2 cannabinoid receptor, sequence (P47936 whole entry): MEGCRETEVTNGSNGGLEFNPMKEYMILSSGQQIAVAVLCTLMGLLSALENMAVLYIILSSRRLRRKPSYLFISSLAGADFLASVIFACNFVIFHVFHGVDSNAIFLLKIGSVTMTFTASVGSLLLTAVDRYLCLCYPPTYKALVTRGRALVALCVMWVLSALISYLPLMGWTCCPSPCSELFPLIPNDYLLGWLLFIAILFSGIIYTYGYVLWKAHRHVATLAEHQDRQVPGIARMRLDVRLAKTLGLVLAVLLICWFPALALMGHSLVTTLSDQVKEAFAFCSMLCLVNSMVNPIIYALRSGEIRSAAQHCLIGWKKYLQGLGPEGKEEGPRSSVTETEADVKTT

Row | Structure (SMILES) | Ki (CB1 cannabinoid receptor; [1]) | Selectivity CB1 (CB1 cannabinoid receptor; Table 8) | Ki (CB2 cannabinoid receptor; [2]) | Ki (CB1 cannabinoid receptor; [5]) | Selectivity CB1 (CB1 cannabinoid receptor; Table 10) | Ki (CB2 cannabinoid receptor; [6]) | also measured
1 | N#CCCC#Cc1ccc(-c2c(CO)c(C(=O)NN3CCCCC3)nn2-c2ccc(Cl)cc2Cl)cc1 [Compound 3-1] | 6 nM | 44 | 265 nM | – | – | – | –
2 | O=C(NN1CCCCC1)c1nn(-c2ccc(Cl)cc2Cl)c(-c2ccc(C#CCCO)cc2)c1CO [Compound 3-2] | 16 nM | 10 | 165 nM | – | – | – | –
3 | Cc1c(C(=O)NN2CCCCC2)nn(-c2ccc(Cl)cc2Cl)c1-c1ccc(C#CCN=[N+]=[N-])cc1 [Compound 3-3] | 3 nM | 250 | 750 nM | – | – | – | –
4 | O=C(NN1CCCCC1)c1nn(-c2ccc(Cl)cc2Cl)c(-c2ccc(C#CCO)cc2)c1CO [Compound 3-4] | 21 nM | 15 | 313 nM | – | – | – | –
5 | Cc1c(C(=O)NN2CCCCC2)nn(-c2ccc(Cl)cc2Cl)c1-c1ccc(C#CCCCO)cc1 [Compound 3-5] | 2 nM | 72 | 144 nM | – | – | – | –
6 | Cc1c(C(=O)NN2CC3CCCC3C2)nn(-c2ccc(Cl)cc2Cl)c1-c1ccc(C#CCCO)cc1 (stereo not drawn) [Compound 3-6] | 7 nM | 28 | 199 nM | – | – | – | –
7 | Cc1c(C(=O)NN2CCCCC2)nn(-c2ccc(Cl)cc2Cl)c1-c1ccc(C#CCCCCO)cc1 [Compound 3-7] | 3 nM | 39 | 116 nM | – | – | – | –
8 | Cc1c(C(=O)N(C)C2CCCCC2)nc(-c2ccc(Cl)cc2Cl)n1-c1ccc(C#CCCO)cc1 [Compound 3-8] | 12 nM | 36 | – | – | – | – | Ki (CB2 cannabinoid receptor; Receptor Affinities Ki (nM) CB2, Table 8): 440 nM
9 | Cc1c(C(=O)N(C)C2CCCCC2)nc(-c2ccc(Cl)cc2Cl)n1-c1ccc(C#CCO)cc1 [Compound 3-9] | 27 nM | 9 | 257 nM | – | – | – | –
10 | N#CCCC#Cc1ccc(-n2c(-c3ccc(Cl)cc3Cl)nc(C(=O)NN3CCCCC3)c2CO)cc1 [Compound 3-10] | 2 nM | 140 | 279 nM | – | – | – | –
11 | Cc1c(C(=O)N(C)C2CCCCC2)nc(-c2ccc(Cl)cc2Cl)n1-c1ccc(C#CCN=[N+]=[N-])cc1 [Compound 3-11] | 1 nM | 82 | 82 nM | – | – | – | –
12 | Cc1c(C(=O)NN2CCCCC2)nn(-c2ccc(Cl)cc2Cl)c1-c1ccc(CCCO)cc1 [Compound 4-1, 1-(2,4-Dichloro-phenyl)-5-[4-(3-hydroxy-propyl)-phenyl]-4-methyl-1H-pyrazole-3-carboxylic acid piperidin-1-ylamide] | – | – | – | – | – | – | Ki (CB1 cannabinoid receptor; [3]): 26 nM; Selectivity CB1 (CB1 cannabinoid receptor; Table 9): 8; Ki (CB2 cannabinoid receptor; [4]): 230 nM
13 | Cc1c(C(=O)NN2CCCCC2)nn(-c2ccc(Cl)cc2Cl)c1-c1ccc(CCCCO)cc1 [Compound 4-2] | – | – | – | – | – | – | Ki (CB1 cannabinoid receptor; [3]): 2 nM; Selectivity CB1 (CB1 cannabinoid receptor; Table 9): 21; Ki (CB2 cannabinoid receptor; [4]): 43 nM
14 | O=C(NN1CCCCC1)c1nn(-c2ccc(Cl)cc2Cl)c(-c2ccc(CCCCO)cc2)c1CO [Compound 4-3] | – | – | – | – | – | – | Ki (CB1 cannabinoid receptor; [3]): 31 nM; Selectivity CB1 (CB1 cannabinoid receptor; Table 9): 243; Ki (CB2 cannabinoid receptor; [4]): 7540 nM
15 | Cc1c(C(=O)NN2CCCCC2)nn(-c2ccc(Cl)cc2Cl)c1-c1ccc(CCC#N)cc1 [Compound 4-4] | – | – | – | – | – | – | Ki (CB1 cannabinoid receptor; [3]): 13 nM; Selectivity CB1 (CB1 cannabinoid receptor; Table 9): 176; Ki (CB2 cannabinoid receptor; [4]): 2290 nM
16 | Cc1c(C(=O)NN2CCCCC2)nn(-c2ccc(Cl)cc2Cl)c1-c1ccc(CCCCN=[N+]=[N-])cc1 [Compound 4-5] | – | – | – | – | – | – | Ki (CB1 cannabinoid receptor; [3]): 3 nM; Selectivity CB1 (CB1 cannabinoid receptor; Table 9): 59; Ki (CB2 cannabinoid receptor; [4]): 177 nM
17 | O=C(NN1CCCCC1)c1nn(-c2ccc(Cl)cc2Cl)c(-c2ccc(CCCO)cc2)c1CO [Compound 4-6] | – | – | – | – | – | – | Ki (CB1 cannabinoid receptor; [3]): 21 nM; Selectivity CB1 (CB1 cannabinoid receptor; Table 9): 3; Ki (CB2 cannabinoid receptor; [4]): 66 nM

Row | Structure (SMILES) | Ki (CB1 cannabinoid receptor; [1]) | Selectivity CB1 (CB1 cannabinoid receptor; Table 8) | Ki (CB2 cannabinoid receptor; [2]) | Ki (CB1 cannabinoid receptor; [5]) | Selectivity CB1 (CB1 cannabinoid receptor; Table 10) | Ki (CB2 cannabinoid receptor; [6]) | also measured
18 | Cc1c(C(=O)N(C)C2CCCCC2)nc(-c2ccc(Cl)cc2Cl)n1-c1ccc(CCCO)cc1 [Compound 4-7] | – | – | – | – | – | – | Ki (CB1 cannabinoid receptor; [3]): 100 nM; Selectivity CB1 (CB1 cannabinoid receptor; Table 9): 3; Ki (CB2 cannabinoid receptor; [4]): 290 nM
19 | Cc1c(C(=O)NN2CCCCC2)nn(-c2ccc(Cl)cc2Cl)c1-c1ccc(C#CCN(C)C)cc1 [Compound 5-1] | – | – | – | 51 nM | 1.5 | 76 nM | –
20 | Cc1c(C(=O)NN2CCCCC2)nn(-c2ccc(Cl)cc2Cl)c1-c1ccc(C#CCNC(=O)OC(C)(C)C)cc1 [Compound 5-2] | – | – | – | 68 nM | 1.3 | 88 nM | –
21 | Cc1c(C(=O)NN2CCCCC2)nn(-c2ccc(Cl)cc2Cl)c1-c1ccc(C#CCN(C)C)cc1.Cl [Compound 5-3] | – | – | – | 30 nM | 2.2 | 66 nM | –
22 | Cc1c(C(=O)NN2CCCCC2)nn(-c2ccc(Cl)cc2Cl)c1-c1ccc(C#CCN)cc1 [Compound 5-4] | – | – | – | 21 nM | 2 | 40 nM | –
23 | Cc1c(C(=O)NN2CCCCC2)nn(-c2ccc(Cl)cc2Cl)c1-c1ccc(C#CCN)cc1.Cl [Compound 5-5] | – | – | – | 30 nM | 1 | 30 nM | –
24 | Cc1c(C(=O)NN2CCCCC2)nn(-c2ccc(Cl)cc2Cl)c1-c1ccc(C#CC2CC2)cc1 [Compound 5-6] | – | – | – | 12 nM | 1.5 | 20 nM | –
25 | Cc1c(C(=O)NN2CCCCC2)nn(-c2ccc(Cl)cc2Cl)c1-c1ccc(C#CC2(O)CCCCC2)cc1 [Compound 5-7] | – | – | – | 20 nM | 3.5 | 68 nM | –
26 | Cc1c(C(=O)NN2CCCCC2)nn(-c2ccc(Cl)cc2Cl)c1-c1ccc(C#CC2(O)CCCC2)cc1 [Compound 5-8] | – | – | – | 9 nM | 1.5 | 13 nM | –
27 | Cc1c(C(=O)NN2CCCCC2)nn(-c2ccc(Cl)cc2Cl)c1-c1ccc(C#Cc2ccccn2)cc1 [Compound 5-9] | – | – | – | 50 nM | 1 | 59 nM | –
28 | Cc1c(C(=O)NN2CCCCC2)nn(-c2ccc(Cl)cc2Cl)c1-c1ccc(C#Cc2cccnc2)cc1 [Compound 5-10] | – | – | – | 15 nM | 3.6 | 54 nM | –
29 | Cc1c(C(=O)NN2CCCCC2)nn(-c2ccc(Cl)cc2Cl)c1-c1ccc(C#CC(C)(C)C)cc1 [Compound 5-11] | – | – | – | 25 nM | 1 | 25 nM | –
30 | Cc1c(C(=O)NN2CCCCC2)nn(-c2ccc(Cl)cc2Cl)c1-c1ccc(C#Cc2ccncc2)cc1 [Compound 5-12] | – | – | – | 8 nM | 52 | 421 nM | –
31 | Cc1c(C(=O)NN2CCCCC2)nn(-c2ccc(Cl)cc2Cl)c1-c1ccc(C#CCCN)cc1 [Compound 5-13] | – | – | – | 20 nM | 36 | 732 nM | –
32 | Cc1c(C(=O)NN2CCCCC2)nn(-c2ccc(Cl)cc2Cl)c1-c1ccc(C#CCCCN)cc1 [Compound 5-14] | – | – | – | 46 nM | 20 | 947 nM | –
33 | Cc1c(C(=O)NN2CCCCC2)nn(-c2ccc(Cl)cc2Cl)c1-c1ccc(C#CCCCCN)cc1 [Compound 5-15] | – | – | – | 87 nM | 17 | 1530 nM | –
